Columns and labels:
K562 [1] = assay: Cytotoxicity against human K562 cells assessed as reduction in cell viability measured after 72 hrs by CCK8 assay; assay type: functional, cell-based; conditions: Homo sapiens, K562, 72 h; read-out: IC50
HL-60 = assay: Cytotoxicity against human HL-60 cells assessed as reduction in cell viability measured after 72 hrs by CCK8 assay; assay type: functional, cell-based; conditions: Homo sapiens, HL-60, 72 h; read-out: IC50
MCF7 = assay: Cytotoxicity against human MCF7 cells assessed as reduction in cell viability measured after 72 hrs by CCK8 assay; assay type: functional, cell-based; conditions: Homo sapiens, MCF7, 72 h; read-out: IC50
HeLa = assay: Cytotoxicity against human HeLa cells assessed as reduction in cell viability measured after 72 hrs by CCK8 assay; assay type: functional, cell-based; conditions: Homo sapiens, HeLa, 72 h; read-out: IC50
DU-145 = assay: Cytotoxicity against human DU-145 cells assessed as reduction in cell viability measured after 72 hrs by CCK8 assay; assay type: functional, cell-based; conditions: Homo sapiens, DU-145, 72 h; read-out: IC50
HT-29 = assay: Cytotoxicity against human HT-29 cells assessed as reduction in cell viability measured after 72 hrs by CCK8 assay; assay type: functional, cell-based; conditions: Homo sapiens, HT-29, 72 h; read-out: IC50
K562 [2] = assay: Cytotoxicity against human K562 cells assessed as reduction in cell viability at 0.37 to 3.3 uM by CCK8 assay; assay type: functional, cell-based; conditions: dose 0.37-3.3 µM, time 24-72 hrs, TDE = time-dependent effect
U-937 [3] = assay: Induction of apoptosis in human U-937 cells assessed as late apoptotic cells at 1 uM measured after 24 hrs by annexinV/FITC-propidium iodide staining based flow cytometry (reference value: 2.18 to 2.22 %); assay type: functional
U-937 [4] = assay: Induction of apoptosis in human U-937 cells assessed as early apoptotic cells at 2 uM measured after 24 hrs by annexinV/FITC-propidium iodide staining based flow cytometry (reference value: 1.28 to 1.68 %); assay type: functional
U-937 [5] = assay: Induction of apoptosis in human U-937 cells assessed as late apoptotic cells at 2 uM measured after 24 hrs by annexinV/FITC-propidium iodide staining based flow cytometry (reference value: 2.18 to 2.22 %); assay type: functional
U-937 [6] = assay: Induction of apoptosis in human U-937 cells assessed as viable cells at 2 uM measured after 48 hrs by annexinV/FITC-propidium iodide staining based flow cytometry (reference value: 93.7 to 94.2 %); assay type: functional; conditions: read-out: Activity
U-937 [7] = assay: Induction of apoptosis in human U-937 cells assessed as early apoptotic cells at 2 uM measured after 48 hrs by annexinV/FITC-propidium iodide staining based flow cytometry (reference value: 1.78 to 1.88 %); assay type: functional
U-937 [8] = assay: Induction of apoptosis in human U-937 cells assessed as late apoptotic cells at 2 uM measured after 48 hrs by annexinV/FITC-propidium iodide staining based flow cytometry (reference value: 3.27 to 3.41 %); assay type: functional
U-937 [9] = assay: Induction of apoptosis in human U-937 cells assessed as necrotic cells at 2 uM measured after 48 hrs by annexinV/FITC-propidium iodide staining based flow cytometry (reference value: 0.794 to 0.955 %); assay type: functional
U-937 [10] = assay: Induction of apoptosis in human U-937 cells assessed as apoptotic ratio at 1 uM measured after 24 hrs by annexinV/FITC-propidium iodide staining based flow cytometry (reference value: 3.7 +/- 0.3 %); assay type: functional
U-937 [11] = assay: Cytotoxicity against human U-937 cells assessed as cell viability at 0.37 uM measured after 48 hrs by CCK8 assay relative to control; assay type: functional; conditions: read-out: Activity
U-937 [12] = assay: Cytotoxicity against human U-937 cells assessed as cell viability at 0.37 uM measured after 72 hrs by CCK8 assay relative to control; assay type: functional; conditions: read-out: Activity
U-937 [13] = assay: Cytotoxicity against human U-937 cells assessed as cell viability at 1.1 uM measured after 72 hrs by CCK8 assay relative to control; assay type: functional; conditions: read-out: Activity
U-937 [14] = assay: Cytotoxicity against human U-937 cells assessed as cell viability at 3.3 uM measured after 48 hrs by CCK8 assay relative to control; assay type: functional; conditions: read-out: Activity
U-937 [15] = assay: Cytotoxicity against human U-937 cells assessed as cell viability at 3.3 uM measured after 72 hrs by CCK8 assay relative to control; assay type: functional; conditions: read-out: Activity
K562 [16] = assay: Cytotoxicity against human K562 cells assessed as cell viability at 0.37 uM measured after 24 hrs by CCK8 assay relative to control; assay type: functional; conditions: read-out: Activity
K562 [17] = assay: Cytotoxicity against human K562 cells assessed as cell viability at 0.37 uM measured after 48 hrs by CCK8 assay relative to control; assay type: functional; conditions: read-out: Activity
K562 [18] = assay: Cytotoxicity against human K562 cells assessed as cell viability at 1.1 uM measured after 48 hrs by CCK8 assay relative to control; assay type: functional; conditions: read-out: Activity
K562 [19] = assay: Cytotoxicity against human K562 cells assessed as cell viability at 3.3 uM measured after 24 hrs by CCK8 assay relative to control; assay type: functional; conditions: read-out: Activity

With `C=CCn1c(=O)/c(=C/CCCC)[nH]c(=O)/c1=C/c1ccc(OC)cc1` the IC50 (K562 [1]) was 600 nM, the IC50 (HL-60) was 900 nM and the IC50 (MCF7) was 1900 nM. For the same compound, the IC50 (HeLa) was 900 nM, the IC50 (DU-145) was 1700 nM and the IC50 (HT-29) was 1200 nM. The Activity (K562 [2]) was “Tde”, the Activity (U-937 [3]) was 8.23% and the Activity (U-937 [4]) was 9.66%. It also gave an Activity (U-937 [5]) of 10.3%, a viability at 2 µM (U-937 [6]) of 52.7% and an Activity (U-937 [7]) of 9.76%. It also gave an Activity (U-937 [8]) of 35.1%, an Activity (U-937 [9]) of 1.26% and an Activity (U-937 [10]) of 16%. For the same compound, the viability at 0.37 µM (U-937 [11]) was 74.9%, the viability at 0.37 µM (U-937 [12]) was 58.7% and the viability at 1.1 µM (U-937 [13]) was 3.3%. The viability at 3.3 µM (U-937 [14]) was 0%, the viability at 3.3 µM (U-937 [15]) was 0% and the viability at 0.37 µM (K562 [16]) was 87.8%. For the same compound, the viability at 0.37 µM (K562 [17]) was 90.9%, the viability at 1.1 µM (K562 [18]) was 28.7% and the viability at 3.3 µM (K562 [19]) was 31%.

From ChEMBL document CHEMBL4715742, “Design, synthesis and cytotoxic activities of novel 2,5-diketopiperazine derivatives” (Eur J Med Chem, 2016)
